Assay: Long term storage stability of purified Mitragynine
Assay type: physicochemical
Settings: stored at 2° C.-8° C.

CC[C@@H]1CN2CCc3c([nH]c4cccc(OC)c34)[C@@H]2C[C@@H]1/C(=C\OC)C(=O)OC [Mitragynine]
Storage stability: stable for long term storage

— patent US20260272896A1, “ORAL D[…] OF MITRAGYNINE” (LUCKY 4U EXIMS, priority 2023, published 2026)
